Experiment: mn = molality of the nth substance listed, in mol/kg
Conditions: 101.3 kPa, Liquid; for speed of sound: Sing-around technique in a fixed-path interferometer; for mass density: Vibrating tube method

N[C@@H](Cc1ccc(O)cc1)C(=O)O [3-(p-hydroxyphenyl)-L-alanine] + O
Conditions | mass density, 298.15 K [kg/m3] | mass density, 308.15 K [kg/m3] | mass density, 318.15 K [kg/m3] | speed of sound, 298.15 K [m/s] | speed of sound, 308.15 K [m/s] | speed of sound, 318.15 K [m/s]
m1 = 0.000125 | 997.061 | 994.051 | 990.231 | 1496.6 | 1519.6 | 1536.3
m1 = 0.00025 | 997.068 | 994.058 | 990.238 | 1496.8 | 1519.7 | 1536.5
m1 = 0.0005 | 997.082 | 994.072 | 990.251 | 1496.7 | 1519.8 | 1536.3
m1 = 0.001 | 997.112 | 994.101 | 990.278 | 1497.2 | 1519.7 | 1536.8
m1 = 0.00125 | 997.125 | 994.114 | 990.29 | 1496.8 | 1520.2 | 1536.4
m1 = 0.0015 | 997.138 | 994.126 | 990.301 | 1496.8 | 1519.8 | 1536.4
m1 = 0.002 | 997.168 | 994.152 | 990.318 | 1496.8 | 1519.8 | 1536.5

N[C@@H](CCC(=O)O)C(=O)O [L-glutamic acid] + O
Conditions | mass density, m1 = 0.01 [kg/m3] | mass density, m1 = 0.02 [kg/m3] | mass density, m1 = 0.03 [kg/m3] | mass density, m1 = 0.04 [kg/m3] | mass density, m1 = 0.05 [kg/m3] | speed of sound, m1 = 0.01 [m/s] | speed of sound, m1 = 0.02 [m/s] | speed of sound, m1 = 0.03 [m/s] | speed of sound, m1 = 0.04 [m/s] | speed of sound, m1 = 0.05 [m/s]
298.15 K | 997.642 | 998.213 | 998.786 | 999.352 | 999.936 | 1497.4 | 1498.1 | 1498.9 | 1499.6 | 1500.3
308.15 K | 994.598 | 995.178 | 995.742 | 996.302 | 996.73 | 1520.4 | 1521 | 1521.8 | 1522.3 | 1523.2
318.15 K | 990.784 | 991.318 | 991.875 | 992.445 | 993.001 | 1537 | 1537.7 | 1538.1 | 1539 | 1539.3
